Data reported in the NIST ThermoML archive (doi:10.1016/j.jct.2004.11.007).
Numbers after ± are expanded uncertainties.

Key:
[1] = Solid-liquid equilibrium temperature; conditions: 100 kPa; Crystal
[2] = for vapor or sublimation pressure: Liquid; for Triple point temperature: Crystal
[3] = Molar enthalpy of transition or fusion; conditions: Crystal; DSC

| SMILES | vapor or sublimation pressure ([2]; 373.15 K) [kPa] | Triple point temperature ([2]; visual observation) [K] | vapor or sublimation pressure ([2]; 333.15 K) [kPa] | other results |
| --- | --- | --- | --- | --- |
| CCCCC(C)=O [2-hexanone] | 43.8 ± 1.8 |  |  | Solid-liquid equilibrium temperature [1]: 215.57 ± 2 K; Triple point temperature [2]: 218.42 ± 2 K |
| CCCC(=O)CCC [4-heptanone] |  | 241.77 ± 0.39 |  |  |
| CC(C)=O [acetone] |  |  | 115.7 ± 5.4 |  |
| CCC(=O)CC [pentan-3-one] | 95.9 ± 4.9 | 234.36 ± 0.39 |  |  |

Second part, led by results:

| vapor or sublimation pressure ([2]; 373.15 K) [kPa] | Triple point temperature ([2]; visual observation) [K] | SMILES | vapor or sublimation pressure ([2]; 333.15 K) [kPa] | other results |
| --- | --- | --- | --- | --- |
| 3.6 ± 2.6 | 249.68 ± 0.39 | CN1CCCC1=O [N-methylpyrrolidone] | 0.5 | Molar enthalpy of transition or fusion [3]: 11 ± 0.29 kJ/mol |
|  | 220.77 ± 0.39 | O=C1CCCC1 [cyclopentanone] |  |  |
